Read-outs that look alike come from different tables or passages of the source.
Test system: Influenza A H1N1 virus (H1N1-PR8)
Type: cell-based
Conditions: for average inactivation efficiency against virus: three experiments

## O=C(O[C@@H]1Cc2c(O)cc(O)cc2O[C@@H]1c1cc(O)c(O)c(O)c1)c1cc(O)c(O)c(O)c1 [EGCG, Epigallocatechin gallate]
0.2 mM EGCG + PR8 virus, 5 minutes, third experiment, dilution factor 10^1
  CPE test, virus replication in cell wells (wells 1-10): +
0.2 mM EGCG + PR8 virus, 5 minutes, third experiment, dilution factor 10^2
  CPE test, virus replication in cell wells (wells 1-10): +
0.2 mM EGCG + PR8 virus, 5 minutes, third experiment, dilution factor 10^3
  CPE test, virus replication in cell wells (wells 1-10): +
0.2 mM EGCG + PR8 virus, 5 minutes, third experiment, dilution factor 10^4
  CPE test, virus replication in cell wells (wells 1-10): +
0.2 mM EGCG + PR8 virus, 5 minutes, third experiment, dilution factor 10^5
  CPE test, virus replication in cell wells (wells 1-10): +
0.2 mM EGCG + PR8 virus, 5 minutes, third experiment, dilution factor 10^6
  CPE test, virus replication in cell wells (wells 1-10): − and +
0.2 mM EGCG + PR8 virus, 5 minutes, third experiment, dilution factor 10^7
  CPE test, virus replication in cell wells (wells 1-10): −
0.2 mM EGCG + PR8 virus, 5 minutes, third experiment, dilution factor 10^8
  CPE test, virus replication in cell wells (wells 1-10): −
0.2 mM EGCG + PR8 virus, co-incubated 1 minute, third experiment, dilution factor 10^1, wells 1-10
  CPE test (virus replication in the cell wells): +
0.2 mM EGCG + PR8 virus, co-incubated 1 minute, third experiment, dilution factor 10^2, wells 1-10
  CPE test (virus replication in the cell wells): +
0.2 mM EGCG + PR8 virus, co-incubated 1 minute, third experiment, dilution factor 10^3, wells 1-10
  CPE test (virus replication in the cell wells): +
0.2 mM EGCG + PR8 virus, co-incubated 1 minute, third experiment, dilution factor 10^4, wells 1-10
  CPE test (virus replication in the cell wells): +
0.2 mM EGCG + PR8 virus, co-incubated 1 minute, third experiment, dilution factor 10^5, wells 1-10
  CPE test (virus replication in the cell wells): +
0.2 mM EGCG + PR8 virus, co-incubated 1 minute, third experiment, dilution factor 10^6, wells 1-10
  CPE test (virus replication in the cell wells): + and −
0.2 mM EGCG + PR8 virus, co-incubated 1 minute, third experiment, dilution factor 10^7, wells 1-10
  CPE test (virus replication in the cell wells): − and +
0.2 mM EGCG + PR8 virus, co-incubated 1 minute, third experiment, dilution factor 10^8, wells 1-10
  CPE test (virus replication in the cell wells): −
0.2 mM EGCG + virus, PR8, 1 minute, first experiment, dilution factor 10^1, wells 1-10
  CPE test (virus replication in the cell wells): +
0.2 mM EGCG + virus, PR8, 1 minute, first experiment, dilution factor 10^2, wells 1-10
  CPE test (virus replication in the cell wells): +
0.2 mM EGCG + virus, PR8, 1 minute, first experiment, dilution factor 10^3, wells 1-10
  CPE test (virus replication in the cell wells): +
0.2 mM EGCG + virus, PR8, 1 minute, first experiment, dilution factor 10^4, wells 1-10
  CPE test (virus replication in the cell wells): +
0.2 mM EGCG + virus, PR8, 1 minute, first experiment, dilution factor 10^5, wells 1-10
  CPE test (virus replication in the cell wells): +
0.2 mM EGCG + virus, PR8, 1 minute, first experiment, dilution factor 10^6, wells 1-10
  CPE test (virus replication in the cell wells): − and +
0.2 mM EGCG + virus, PR8, 1 minute, first experiment, dilution factor 10^7, wells 1-10
  CPE test (virus replication in the cell wells): − and +
0.2 mM EGCG + virus, PR8, 1 minute, first experiment, dilution factor 10^8, wells 1-10
  CPE test (virus replication in the cell wells): −
0.2 mM EGCG + virus, PR8, 1 minute, second experiment, dilution factor 10^1, wells 1-10
  CPE test (virus replication in the cell wells): +
0.2 mM EGCG + virus, PR8, 1 minute, second experiment, dilution factor 10^2, wells 1-10
  CPE test (virus replication in the cell wells): +
0.2 mM EGCG + virus, PR8, 1 minute, second experiment, dilution factor 10^3, wells 1-10
  CPE test (virus replication in the cell wells): +
0.2 mM EGCG + virus, PR8, 1 minute, second experiment, dilution factor 10^4, wells 1-10
  CPE test (virus replication in the cell wells): +
0.2 mM EGCG + virus, PR8, 1 minute, second experiment, dilution factor 10^5, wells 1-10
  CPE test (virus replication in the cell wells): +
0.2 mM EGCG + virus, PR8, 1 minute, second experiment, dilution factor 10^6, wells 1-10
  CPE test (virus replication in the cell wells): + and −
0.2 mM EGCG + virus, PR8, 1 minute, second experiment, dilution factor 10^7, wells 1-10
  CPE test (virus replication in the cell wells): −
0.2 mM EGCG + virus, PR8, 1 minute, second experiment, dilution factor 10^8, wells 1-10
  CPE test (virus replication in the cell wells): −
0.2 mM EGCG, PR8 virus, 1 minute
  average inactivation efficiency against virus: 49.88%
0.2 mM EGCG, PR8 virus, 5 minutes, single experiment
  inactivation efficiency against the virus: 84.15%
0.2 mM EGCG, PR8 virus, 5 minutes
  average inactivation efficiency against virus: 70.91%
1 mM EGCG + PR8 virus, 5 minutes, third experiment, dilution factor 10^3
  CPE test, virus replication in cell wells (wells 1-10): +
1 mM EGCG + PR8 virus, 5 minutes, third experiment, dilution factor 10^4
  CPE test, virus replication in cell wells (wells 1-10): +
1 mM EGCG + PR8 virus, 5 minutes, third experiment, dilution factor 10^5
  CPE test, virus replication in cell wells (wells 1-10): +
1 mM EGCG + PR8 virus, 5 minutes, third experiment, dilution factor 10^6
  CPE test, virus replication in cell wells (wells 1-10): − and +
1 mM EGCG + PR8 virus, 5 minutes, third experiment, dilution factor 10^7
  CPE test, virus replication in cell wells (wells 1-10): −
1 mM EGCG + PR8 virus, 5 minutes, third experiment, dilution factor 10^8
  CPE test, virus replication in cell wells (wells 1-10): −
1 mM EGCG + PR8 virus, co-incubated 1 minute, third experiment, dilution factor 10^3, wells 1-10
  CPE test (virus replication in the cell wells): +
1 mM EGCG + PR8 virus, co-incubated 1 minute, third experiment, dilution factor 10^4, wells 1-10
  CPE test (virus replication in the cell wells): +
1 mM EGCG + PR8 virus, co-incubated 1 minute, third experiment, dilution factor 10^5, wells 1-10
  CPE test (virus replication in the cell wells): + and −
1 mM EGCG + PR8 virus, co-incubated 1 minute, third experiment, dilution factor 10^6, wells 1-10
  CPE test (virus replication in the cell wells): − and +
1 mM EGCG + PR8 virus, co-incubated 1 minute, third experiment, dilution factor 10^7, wells 1-10
  CPE test (virus replication in the cell wells): −
1 mM EGCG + PR8 virus, co-incubated 1 minute, third experiment, dilution factor 10^8, wells 1-10
  CPE test (virus replication in the cell wells): −
1 mM EGCG + PR8 virus, co-incubated 5 minutes, first experiment, dilution factor 10^3, wells 1-10
  CPE test (virus replication in the cell wells): +
1 mM EGCG + PR8 virus, co-incubated 5 minutes, first experiment, dilution factor 10^4, wells 1-10
  CPE test (virus replication in the cell wells): +
1 mM EGCG + PR8 virus, co-incubated 5 minutes, first experiment, dilution factor 10^5, wells 1-10
  CPE test (virus replication in the cell wells): +
1 mM EGCG + virus, PR8, 1 minute, first experiment, dilution factor 10^3, wells 1-10
  CPE test (virus replication in the cell wells): +
1 mM EGCG + virus, PR8, 1 minute, first experiment, dilution factor 10^4, wells 1-10
  CPE test (virus replication in the cell wells): +
1 mM EGCG + virus, PR8, 1 minute, first experiment, dilution factor 10^5, wells 1-10
  CPE test (virus replication in the cell wells): +
1 mM EGCG + virus, PR8, 1 minute, first experiment, dilution factor 10^6, wells 1-10
  CPE test (virus replication in the cell wells): + and −
1 mM EGCG + virus, PR8, 1 minute, first experiment, dilution factor 10^7, wells 1-10
  CPE test (virus replication in the cell wells): −
1 mM EGCG + virus, PR8, 1 minute, first experiment, dilution factor 10^8, wells 1-10
  CPE test (virus replication in the cell wells): −
1 mM EGCG + virus, PR8, 1 minute, second experiment, dilution factor 10^1, wells 1-10
  CPE test (virus replication in the cell wells): +
1 mM EGCG + virus, PR8, 1 minute, second experiment, dilution factor 10^2, wells 1-10
  CPE test (virus replication in the cell wells): +
1 mM EGCG + virus, PR8, 1 minute, second experiment, dilution factor 10^3, wells 1-10
  CPE test (virus replication in the cell wells): +
1 mM EGCG + virus, PR8, 1 minute, second experiment, dilution factor 10^4, wells 1-10
  CPE test (virus replication in the cell wells): +
